Measured values from ChEMBL document CHEMBL1909046, “DrugMatrix in vitro pharmacology data”.

target: T1, Alpha-2C adrenergic receptor (Homo sapiens, UniProt P18825); test: DRUGMATRIX: Adrenergic Alpha-2C radioligand binding (ligand: [3H] MK-912); type: cell membranes, Sf9, Membrane; details: read-out: IC50
T1 sequence (P18825 whole entry): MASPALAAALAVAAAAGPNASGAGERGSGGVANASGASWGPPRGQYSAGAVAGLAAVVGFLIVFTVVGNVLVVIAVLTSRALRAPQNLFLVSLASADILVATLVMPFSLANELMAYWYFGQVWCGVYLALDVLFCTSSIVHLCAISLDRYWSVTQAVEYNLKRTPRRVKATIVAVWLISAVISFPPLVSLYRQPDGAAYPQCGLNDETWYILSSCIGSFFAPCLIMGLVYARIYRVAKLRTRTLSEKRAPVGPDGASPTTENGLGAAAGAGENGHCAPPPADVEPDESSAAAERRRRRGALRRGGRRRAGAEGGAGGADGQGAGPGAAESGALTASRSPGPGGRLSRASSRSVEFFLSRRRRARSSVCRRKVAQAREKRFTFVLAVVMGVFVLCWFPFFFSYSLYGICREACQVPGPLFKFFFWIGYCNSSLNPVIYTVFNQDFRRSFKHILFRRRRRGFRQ

Structure (SMILES)	IC50 [nM]
CC(C)N1CCN(c2ccc(OCC3COC(Cn4cncn4)(c4ccc(Cl)cc4Cl)O3)cc2)CC1 (stereo not drawn) [TERCONAZOLE]	418

same assay, conditions: read-out: Ki

Structure (SMILES)	Ki [nM]
CC(C)N1CCN(c2ccc(OCC3COC(Cn4cncn4)(c4ccc(Cl)cc4Cl)O3)cc2)CC1 (stereo not drawn) [TERCONAZOLE]	61

same assay, conditions: sf9

Structure (SMILES)	IC50
Cc1cccc(N(C)C(=S)Oc2ccc3ccccc3c2)c1 [TOLNAFTATE]	Not Active
Cc1oncc1C(=O)Nc1ccc(C(F)(F)F)cc1 [LEFLUNOMIDE]	Not Active
CC[C@@H](CO)NC(=O)[C@@H]1C=C2c3cccc4[nH]cc(c34)C[C@H]2N(C)C1 [METHYLERGONOVINE]	Not Active
CC(C)(C)NC(=O)[C@@H]1C[C@@H]2CCCC[C@@H]2CN1C[C@@H](O)[C@H](Cc1ccccc1)NC(=O)[C@H](CC(N)=O)NC(=O)c1ccc2ccccc2n1	Not Active
CC(=O)[C@@]1(O)CC[C@H]2[C@@H]3C[C@H](C)C4=CC(=O)CC[C@]4(C)[C@H]3CC[C@@]21C	Not Active
COc1nc(C)nc(Cl)c1NC1=NCCN1 [MOXONIDINE]	Not Active
N[C@@H](Cc1cc(I)c(Oc2ccc(O)c(I)c2)c(I)c1)C(=O)O [LIOTHYRONINE]	Not Active
N[C@@H](Cc1ccc(O)c(O)c1)C(=O)O [LEVODOPA]	Not Active

target: T2, Cathepsin G (Homo sapiens, UniProt P08311); test: not given; type: tissue-based; details: neutrophil;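 further: inhibition of Cathepsin G enzyme activity, tested on an AMC-conjugated peptide substrate; in other assays of this panel Not Active means under 50% inhibition at 10 µM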
T2 sequence (P08311 whole entry): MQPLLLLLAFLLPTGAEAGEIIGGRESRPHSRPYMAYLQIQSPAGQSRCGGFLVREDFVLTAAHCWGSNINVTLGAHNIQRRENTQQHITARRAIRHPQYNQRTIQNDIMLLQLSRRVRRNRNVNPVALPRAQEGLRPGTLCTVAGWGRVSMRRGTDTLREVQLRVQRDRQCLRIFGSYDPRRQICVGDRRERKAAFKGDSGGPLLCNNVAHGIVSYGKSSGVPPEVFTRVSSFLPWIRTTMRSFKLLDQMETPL

Structure (SMILES)	IC50
Cc1cccc(N(C)C(=S)Oc2ccc3ccccc3c2)c1 [TOLNAFTATE]	Not Active
Cc1oncc1C(=O)Nc1ccc(C(F)(F)F)cc1 [LEFLUNOMIDE]	Not Active
CC[C@@H](CO)NC(=O)[C@@H]1C=C2c3cccc4[nH]cc(c34)C[C@H]2N(C)C1 [METHYLERGONOVINE]	Not Active
CC(C)(C)NC(=O)[C@@H]1C[C@@H]2CCCC[C@@H]2CN1C[C@@H](O)[C@H](Cc1ccccc1)NC(=O)[C@H](CC(N)=O)NC(=O)c1ccc2ccccc2n1	Not Active
CC(=O)[C@@]1(O)CC[C@H]2[C@@H]3C[C@H](C)C4=CC(=O)CC[C@]4(C)[C@H]3CC[C@@]21C	Not Active
CC(C)N1CCN(c2ccc(OCC3COC(Cn4cncn4)(c4ccc(Cl)cc4Cl)O3)cc2)CC1 (stereo not drawn) [TERCONAZOLE]	Not Active
COc1nc(C)nc(Cl)c1NC1=NCCN1 [MOXONIDINE]	Not Active
N[C@@H](Cc1cc(I)c(Oc2ccc(O)c(I)c2)c(I)c1)C(=O)O [LIOTHYRONINE]	Not Active
N[C@@H](Cc1ccc(O)c(O)c1)C(=O)O [LEVODOPA]	Not Active

target: Epidermal growth factor receptor (Homo sapiens, UniProt P00533); test: DRUGMATRIX: Protein Tyrosine Kinase, EGF Receptor enzyme inhibition (substrate: Poly(Glu:Tyr)); type: cell-based, Insect cells; details: Not Active = under 50% inhibition at 10 µM; read-out: IC50
Sequence (P00533 whole entry): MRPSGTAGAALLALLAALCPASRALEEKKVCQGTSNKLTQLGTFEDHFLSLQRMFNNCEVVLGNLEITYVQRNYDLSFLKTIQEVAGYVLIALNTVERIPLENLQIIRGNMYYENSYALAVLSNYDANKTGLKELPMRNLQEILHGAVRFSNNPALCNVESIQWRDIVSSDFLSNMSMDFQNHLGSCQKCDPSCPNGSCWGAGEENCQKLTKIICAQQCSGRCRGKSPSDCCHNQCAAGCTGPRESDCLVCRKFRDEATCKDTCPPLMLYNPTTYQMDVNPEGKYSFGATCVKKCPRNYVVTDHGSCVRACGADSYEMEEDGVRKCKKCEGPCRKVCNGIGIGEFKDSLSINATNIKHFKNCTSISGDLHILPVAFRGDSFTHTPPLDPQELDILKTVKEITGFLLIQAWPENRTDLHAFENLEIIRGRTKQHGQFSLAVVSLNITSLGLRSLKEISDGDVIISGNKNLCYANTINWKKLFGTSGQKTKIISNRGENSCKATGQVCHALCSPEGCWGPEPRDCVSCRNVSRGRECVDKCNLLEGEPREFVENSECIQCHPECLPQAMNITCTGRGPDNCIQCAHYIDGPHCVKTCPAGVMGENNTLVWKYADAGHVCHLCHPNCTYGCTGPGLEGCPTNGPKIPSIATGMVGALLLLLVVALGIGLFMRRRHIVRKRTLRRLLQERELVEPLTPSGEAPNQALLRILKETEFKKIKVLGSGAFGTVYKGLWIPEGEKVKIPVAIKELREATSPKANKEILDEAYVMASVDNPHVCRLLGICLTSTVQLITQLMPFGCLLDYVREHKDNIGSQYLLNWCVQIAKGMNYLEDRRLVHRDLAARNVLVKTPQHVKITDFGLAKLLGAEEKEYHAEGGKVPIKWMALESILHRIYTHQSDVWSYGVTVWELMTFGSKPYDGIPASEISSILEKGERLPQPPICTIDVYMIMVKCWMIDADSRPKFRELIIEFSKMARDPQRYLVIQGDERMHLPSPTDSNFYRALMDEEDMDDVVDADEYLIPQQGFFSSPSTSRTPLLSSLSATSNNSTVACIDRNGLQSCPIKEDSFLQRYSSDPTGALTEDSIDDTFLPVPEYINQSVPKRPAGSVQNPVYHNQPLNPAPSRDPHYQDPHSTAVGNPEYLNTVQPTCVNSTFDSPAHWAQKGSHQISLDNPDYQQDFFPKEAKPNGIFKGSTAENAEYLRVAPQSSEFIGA

Structure (SMILES)	IC50 [nM]
N[C@@H](Cc1ccc(O)c(O)c1)C(=O)O [LEVODOPA]	2880

same assay, conditions: insect cells; Not Active = under 50% inhibition at 10 µM

Structure (SMILES)	IC50
Cc1cccc(N(C)C(=S)Oc2ccc3ccccc3c2)c1 [TOLNAFTATE]	Not Active
Cc1oncc1C(=O)Nc1ccc(C(F)(F)F)cc1 [LEFLUNOMIDE]	Not Active
CC[C@@H](CO)NC(=O)[C@@H]1C=C2c3cccc4[nH]cc(c34)C[C@H]2N(C)C1 [METHYLERGONOVINE]	Not Active
CC(C)(C)NC(=O)[C@@H]1C[C@@H]2CCCC[C@@H]2CN1C[C@@H](O)[C@H](Cc1ccccc1)NC(=O)[C@H](CC(N)=O)NC(=O)c1ccc2ccccc2n1	Not Active
CC(=O)[C@@]1(O)CC[C@H]2[C@@H]3C[C@H](C)C4=CC(=O)CC[C@]4(C)[C@H]3CC[C@@]21C	Not Active
CC(C)N1CCN(c2ccc(OCC3COC(Cn4cncn4)(c4ccc(Cl)cc4Cl)O3)cc2)CC1 (stereo not drawn) [TERCONAZOLE]	Not Active
COc1nc(C)nc(Cl)c1NC1=NCCN1 [MOXONIDINE]	Not Active
N[C@@H](Cc1cc(I)c(Oc2ccc(O)c(I)c2)c(I)c1)C(=O)O [LIOTHYRONINE]	Not Active

target: Receptor tyrosine-protein kinase erbB-2 (Homo sapiens, UniProt P04626); test: biochemical; type: cell-based, Insect cells; details: insect cells;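 further: inhibition of HER2 kinase enzyme activity, measured with Poly(Glu:Tyr) as the phosphorylation substrate; in other assays of this panel Not Active means under 50% inhibition at 10 µM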
Sequence (P04626 whole entry): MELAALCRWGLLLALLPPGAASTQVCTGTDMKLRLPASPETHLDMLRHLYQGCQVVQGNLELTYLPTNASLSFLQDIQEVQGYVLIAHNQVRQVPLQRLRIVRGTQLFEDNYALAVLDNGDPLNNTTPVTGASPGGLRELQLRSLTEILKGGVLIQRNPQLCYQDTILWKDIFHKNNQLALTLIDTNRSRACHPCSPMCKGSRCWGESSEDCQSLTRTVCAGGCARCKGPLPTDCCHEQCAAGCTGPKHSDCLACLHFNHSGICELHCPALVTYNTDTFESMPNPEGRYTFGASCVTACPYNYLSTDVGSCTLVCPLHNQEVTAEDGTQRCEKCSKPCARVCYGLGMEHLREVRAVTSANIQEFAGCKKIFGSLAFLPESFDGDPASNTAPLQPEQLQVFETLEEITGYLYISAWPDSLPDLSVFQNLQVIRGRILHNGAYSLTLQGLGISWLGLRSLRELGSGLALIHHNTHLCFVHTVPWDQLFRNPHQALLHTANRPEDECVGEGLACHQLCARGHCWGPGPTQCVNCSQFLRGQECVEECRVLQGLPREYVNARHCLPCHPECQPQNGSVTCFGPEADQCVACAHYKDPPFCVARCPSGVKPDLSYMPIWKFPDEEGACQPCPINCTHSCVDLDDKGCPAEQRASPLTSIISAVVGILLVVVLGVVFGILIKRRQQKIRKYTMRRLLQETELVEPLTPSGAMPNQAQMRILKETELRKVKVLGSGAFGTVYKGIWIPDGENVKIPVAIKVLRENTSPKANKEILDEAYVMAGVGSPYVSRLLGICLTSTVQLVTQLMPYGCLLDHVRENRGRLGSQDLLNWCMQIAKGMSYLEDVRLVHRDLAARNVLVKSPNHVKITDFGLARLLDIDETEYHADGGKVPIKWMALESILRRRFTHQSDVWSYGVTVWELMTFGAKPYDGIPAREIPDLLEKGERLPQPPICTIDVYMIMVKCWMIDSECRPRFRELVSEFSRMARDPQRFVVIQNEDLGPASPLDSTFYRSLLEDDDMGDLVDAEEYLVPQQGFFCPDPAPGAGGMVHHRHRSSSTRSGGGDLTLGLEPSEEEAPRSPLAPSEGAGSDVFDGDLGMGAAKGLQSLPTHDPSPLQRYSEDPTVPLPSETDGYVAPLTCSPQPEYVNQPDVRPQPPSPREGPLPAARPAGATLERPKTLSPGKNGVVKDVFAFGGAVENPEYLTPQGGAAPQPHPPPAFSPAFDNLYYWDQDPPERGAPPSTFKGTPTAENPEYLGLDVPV

Structure (SMILES)	IC50
Cc1cccc(N(C)C(=S)Oc2ccc3ccccc3c2)c1 [TOLNAFTATE]	Not Active
Cc1oncc1C(=O)Nc1ccc(C(F)(F)F)cc1 [LEFLUNOMIDE]	Not Active
CC[C@@H](CO)NC(=O)[C@@H]1C=C2c3cccc4[nH]cc(c34)C[C@H]2N(C)C1 [METHYLERGONOVINE]	Not Active
CC(C)(C)NC(=O)[C@@H]1C[C@@H]2CCCC[C@@H]2CN1C[C@@H](O)[C@H](Cc1ccccc1)NC(=O)[C@H](CC(N)=O)NC(=O)c1ccc2ccccc2n1	Not Active
CC(=O)[C@@]1(O)CC[C@H]2[C@@H]3C[C@H](C)C4=CC(=O)CC[C@]4(C)[C@H]3CC[C@@]21C	Not Active
CC(C)N1CCN(c2ccc(OCC3COC(Cn4cncn4)(c4ccc(Cl)cc4Cl)O3)cc2)CC1 (stereo not drawn) [TERCONAZOLE]	Not Active
COc1nc(C)nc(Cl)c1NC1=NCCN1 [MOXONIDINE]	Not Active
N[C@@H](Cc1cc(I)c(Oc2ccc(O)c(I)c2)c(I)c1)C(=O)O [LIOTHYRONINE]	Not Active
N[C@@H](Cc1ccc(O)c(O)c1)C(=O)O [LEVODOPA]	Not Active

target: T3, Endothelin-1 receptor (Homo sapiens, UniProt P25101); test: not given; type: cell membranes, CHO-K1, Membrane; details: cho-k1; further: in other assays of this panel Not Active means under 50% inhibition at 10 µM
T3 sequence (P25101 whole entry): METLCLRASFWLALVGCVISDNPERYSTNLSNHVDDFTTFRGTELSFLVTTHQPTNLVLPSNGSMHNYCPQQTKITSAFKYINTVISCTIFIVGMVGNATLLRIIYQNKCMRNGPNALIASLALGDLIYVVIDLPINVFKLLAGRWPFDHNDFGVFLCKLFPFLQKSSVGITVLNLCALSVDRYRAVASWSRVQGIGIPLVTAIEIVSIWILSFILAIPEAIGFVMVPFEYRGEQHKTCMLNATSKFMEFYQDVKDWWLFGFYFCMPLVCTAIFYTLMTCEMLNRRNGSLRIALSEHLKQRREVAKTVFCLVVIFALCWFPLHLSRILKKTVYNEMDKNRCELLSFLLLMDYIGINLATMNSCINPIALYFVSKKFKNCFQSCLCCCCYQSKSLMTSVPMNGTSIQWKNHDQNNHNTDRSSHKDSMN

Structure (SMILES)	IC50
Cc1cccc(N(C)C(=S)Oc2ccc3ccccc3c2)c1 [TOLNAFTATE]	Not Active
Cc1oncc1C(=O)Nc1ccc(C(F)(F)F)cc1 [LEFLUNOMIDE]	Not Active
CC[C@@H](CO)NC(=O)[C@@H]1C=C2c3cccc4[nH]cc(c34)C[C@H]2N(C)C1 [METHYLERGONOVINE]	Not Active
CC(C)(C)NC(=O)[C@@H]1C[C@@H]2CCCC[C@@H]2CN1C[C@@H](O)[C@H](Cc1ccccc1)NC(=O)[C@H](CC(N)=O)NC(=O)c1ccc2ccccc2n1	Not Active
CC(=O)[C@@]1(O)CC[C@H]2[C@@H]3C[C@H](C)C4=CC(=O)CC[C@]4(C)[C@H]3CC[C@@]21C	Not Active
CC(C)N1CCN(c2ccc(OCC3COC(Cn4cncn4)(c4ccc(Cl)cc4Cl)O3)cc2)CC1 (stereo not drawn) [TERCONAZOLE]	Not Active
COc1nc(C)nc(Cl)c1NC1=NCCN1 [MOXONIDINE]	Not Active
N[C@@H](Cc1cc(I)c(Oc2ccc(O)c(I)c2)c(I)c1)C(=O)O [LIOTHYRONINE]	Not Active
N[C@@H](Cc1ccc(O)c(O)c1)C(=O)O [LEVODOPA]	Not Active

target: Voltage-gated inwardly rectifying potassium channel KCNH2 (Homo sapiens, UniProt Q12809); test: not given; details: hek293; further: in other assays of this panel Not Active means under 50% inhibition at 10 µM
Sequence (Q12809 whole entry): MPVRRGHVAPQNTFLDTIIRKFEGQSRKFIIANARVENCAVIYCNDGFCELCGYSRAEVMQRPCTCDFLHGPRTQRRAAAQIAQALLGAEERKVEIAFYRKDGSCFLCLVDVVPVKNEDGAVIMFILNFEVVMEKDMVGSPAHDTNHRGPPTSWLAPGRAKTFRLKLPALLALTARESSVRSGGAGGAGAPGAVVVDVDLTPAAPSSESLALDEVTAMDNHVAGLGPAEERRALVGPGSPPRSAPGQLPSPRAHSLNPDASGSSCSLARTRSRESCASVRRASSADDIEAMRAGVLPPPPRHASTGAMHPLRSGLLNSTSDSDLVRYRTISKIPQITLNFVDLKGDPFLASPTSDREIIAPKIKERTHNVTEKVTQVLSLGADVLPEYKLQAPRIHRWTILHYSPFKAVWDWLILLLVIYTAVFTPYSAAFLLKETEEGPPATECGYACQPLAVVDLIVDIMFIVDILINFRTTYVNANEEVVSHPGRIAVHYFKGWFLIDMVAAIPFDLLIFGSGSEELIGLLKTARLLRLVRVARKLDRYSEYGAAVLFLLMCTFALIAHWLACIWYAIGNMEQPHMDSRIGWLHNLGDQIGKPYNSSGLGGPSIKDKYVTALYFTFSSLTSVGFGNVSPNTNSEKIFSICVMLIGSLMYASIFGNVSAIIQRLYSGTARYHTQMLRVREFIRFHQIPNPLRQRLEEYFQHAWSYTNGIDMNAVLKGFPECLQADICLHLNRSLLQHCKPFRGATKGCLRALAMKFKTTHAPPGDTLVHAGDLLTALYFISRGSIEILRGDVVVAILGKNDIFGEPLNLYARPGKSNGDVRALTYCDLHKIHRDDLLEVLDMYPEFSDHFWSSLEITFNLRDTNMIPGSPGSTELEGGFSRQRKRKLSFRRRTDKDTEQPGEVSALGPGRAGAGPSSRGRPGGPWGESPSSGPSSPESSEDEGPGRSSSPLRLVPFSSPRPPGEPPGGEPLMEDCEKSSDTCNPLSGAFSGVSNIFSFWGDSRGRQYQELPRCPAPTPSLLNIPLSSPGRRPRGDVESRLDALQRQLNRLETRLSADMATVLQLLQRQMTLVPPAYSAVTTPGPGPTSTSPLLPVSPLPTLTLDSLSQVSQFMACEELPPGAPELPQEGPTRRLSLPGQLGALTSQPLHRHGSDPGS

Structure (SMILES)	IC50	Ki
Cc1cccc(N(C)C(=S)Oc2ccc3ccccc3c2)c1 [TOLNAFTATE]	Not Active	Not Active
Cc1oncc1C(=O)Nc1ccc(C(F)(F)F)cc1 [LEFLUNOMIDE]	Not Active	Not Active
CC[C@@H](CO)NC(=O)[C@@H]1C=C2c3cccc4[nH]cc(c34)C[C@H]2N(C)C1 [METHYLERGONOVINE]	Not Active	Not Active
CC(C)(C)NC(=O)[C@@H]1C[C@@H]2CCCC[C@@H]2CN1C[C@@H](O)[C@H](Cc1ccccc1)NC(=O)[C@H](CC(N)=O)NC(=O)c1ccc2ccccc2n1	Not Active	Not Active
CC(=O)[C@@]1(O)CC[C@H]2[C@@H]3C[C@H](C)C4=CC(=O)CC[C@]4(C)[C@H]3CC[C@@]21C	Not Active	Not Active
CC(C)N1CCN(c2ccc(OCC3COC(Cn4cncn4)(c4ccc(Cl)cc4Cl)O3)cc2)CC1 (stereo not drawn) [TERCONAZOLE]	Not Active	Not Active
COc1nc(C)nc(Cl)c1NC1=NCCN1 [MOXONIDINE]	Not Active	Not Active
N[C@@H](Cc1cc(I)c(Oc2ccc(O)c(I)c2)c(I)c1)C(=O)O [LIOTHYRONINE]	Not Active	Not Active
N[C@@H](Cc1ccc(O)c(O)c1)C(=O)O [LEVODOPA]	Not Active	Not Active

target: T4, Cholecystokinin receptor type A (Homo sapiens, UniProt P32238); test: not given; type: cell membranes, Membrane; details: 1321-n1; further: in other assays of this panel Not Active means under 50% inhibition at 10 µM
T4 sequence (P32238 whole entry): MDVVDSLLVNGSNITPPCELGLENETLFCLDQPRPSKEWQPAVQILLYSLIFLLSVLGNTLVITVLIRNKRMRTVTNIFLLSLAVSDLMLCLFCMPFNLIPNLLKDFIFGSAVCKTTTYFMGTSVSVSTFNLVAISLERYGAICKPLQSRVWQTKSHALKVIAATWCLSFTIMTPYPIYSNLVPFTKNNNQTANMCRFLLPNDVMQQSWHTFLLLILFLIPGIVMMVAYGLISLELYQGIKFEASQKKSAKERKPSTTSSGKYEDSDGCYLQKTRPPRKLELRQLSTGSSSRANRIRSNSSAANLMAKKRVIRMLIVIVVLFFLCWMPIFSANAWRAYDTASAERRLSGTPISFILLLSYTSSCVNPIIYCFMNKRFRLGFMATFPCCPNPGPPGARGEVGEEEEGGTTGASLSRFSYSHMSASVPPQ

Structure (SMILES)	IC50
Cc1cccc(N(C)C(=S)Oc2ccc3ccccc3c2)c1 [TOLNAFTATE]	Not Active
Cc1oncc1C(=O)Nc1ccc(C(F)(F)F)cc1 [LEFLUNOMIDE]	Not Active
CC[C@@H](CO)NC(=O)[C@@H]1C=C2c3cccc4[nH]cc(c34)C[C@H]2N(C)C1 [METHYLERGONOVINE]	Not Active
CC(C)(C)NC(=O)[C@@H]1C[C@@H]2CCCC[C@@H]2CN1C[C@@H](O)[C@H](Cc1ccccc1)NC(=O)[C@H](CC(N)=O)NC(=O)c1ccc2ccccc2n1	Not Active
CC(=O)[C@@]1(O)CC[C@H]2[C@@H]3C[C@H](C)C4=CC(=O)CC[C@]4(C)[C@H]3CC[C@@]21C	Not Active
CC(C)N1CCN(c2ccc(OCC3COC(Cn4cncn4)(c4ccc(Cl)cc4Cl)O3)cc2)CC1 (stereo not drawn) [TERCONAZOLE]	Not Active
COc1nc(C)nc(Cl)c1NC1=NCCN1 [MOXONIDINE]	Not Active
N[C@@H](Cc1cc(I)c(Oc2ccc(O)c(I)c2)c(I)c1)C(=O)O [LIOTHYRONINE]	Not Active
N[C@@H](Cc1ccc(O)c(O)c1)C(=O)O [LEVODOPA]	Not Active
